Experimental data taken from ChEMBL document CHEMBL1141331, “Citromycetins and bilains A-C: new aromatic polyketides and diketopiperazines from Australian marine-derived and terrestrial Penicillium spp” (2007).

Test: Cytotoxicity against mouse NS1 cells
Type: functional

Going from `C[C@@H]1CC(=O)C2=C(O1)c1cc(O)c(O)cc1OC2` to `Cc1cc(=O)c2c(o1)-c1cc(O)c(O)cc1OC2` [CITROMYCIN], the LD99 rises from 0.05 µM to 0.1 µM (2-fold).

For `CS[C@@H]1C(=O)N(C)[C@](Cc2ccc(OCC=C(C)C)cc2)(SC)C(=O)N1C` (relative stereo), the LD99 was 0.15 µM.
